Our source for the IC50 values is patent US8530490B2, “Uracil compound or salt thereof having human deoxyuridine triphosphatase inhibitory activity” (Taiho Pharmaceutical Co., Ltd., priority 2008, dated 2013).

For this experiment, the target named is human dUTPase (Homo sapiens (Human), UniProt P33316). Nature of the experiment: Human dUTPase inhibitory effect: production of [5-3H]dUMP from [5-3H]dUTP, measured by HPLC with flow scintillation. It counts as biochemical. Particulars: [5-3H]dUMP production from [5-3H]dUTP, 37° C., 15 minutes. Summed up: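 E. coli-expressed purified human dUTPase reacted with 1 μM dUTP stock containing [5-3H]dUTP in Tris pH 7.4, MgCl2, 2-mercaptoethanol and albumin, 15 min at 37° C; stopped by 1 min at 100° C. [5-3H]dUMP formed was separated by reversed-phase ion-pair HPLC and quantified by flow scintillation versus water control.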
Chain of human dUTPase (P33316 94-252): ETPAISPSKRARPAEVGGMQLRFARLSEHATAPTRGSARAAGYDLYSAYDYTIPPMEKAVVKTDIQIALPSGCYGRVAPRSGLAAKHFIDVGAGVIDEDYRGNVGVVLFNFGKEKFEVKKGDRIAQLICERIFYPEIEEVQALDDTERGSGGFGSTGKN

Broadly, the IC50 is the concentration that gives 50% inhibition. Low readings indicate greater potency in that assay, high ones weaker potency in that assay. With `C[C@@H](NS(=O)(=O)CCCCCn1ccc(=O)[nH]c1=O)c1cccc(OC2CCCC2)c1` [Example 106, (R)—N-(1-(3-(cyclopentyloxy)phenyl)ethyl)-5-(2,4-dioxo-3,4-dihydropyrimidin-1(2H)-yl)pentane-1-sulfonamide], the IC50 is 0.12 µM.
In the case of `C[C@@H](NS(=O)(=O)CCCn1ccc(=O)[nH]c1=O)c1cccc(OCC(F)F)c1` [Example 107, (R)—N-(1-(3-(2,2-difluoroethoxy)phenyl)ethyl)-3-(2,4-dioxo-3,4-dihydropyrimidin-1(2H)-yl)propane-1-sulfonamide] it was 1.72 µM.
In the case of `C[C@@H](NS(=O)(=O)CCCn1ccc(=O)[nH]c1=O)c1cccc(OCC2CC2)c1` [Example 108, (R)—N-(1-(3-(cyclopropylmethoxy)phenyl)ethyl)-3-(2,4-dioxo-3,4-dihydropyrimidin-1(2H)-yl)propane-1-sulfonamide] it was 1.71 µM; in that of `C[C@@H](NS(=O)(=O)CCCCCn1ccc(=O)[nH]c1=O)c1cccc(OCC2CC2)c1` [Example 109, (R)—N-(1-(3-(cyclopropylmethoxy)phenyl)ethyl)-5-(2,4-dioxo-3,4-dihydropyrimidin-1(2H)-yl)pentane-1-sulfonamide], 0.12 µM.
In the case of `C[C@@H](NS(=O)(=O)CC/C=C/Cn1ccc(=O)[nH]c1=O)c1cccc(OCC2CC2)c1` [Example 110, (R,E)-N-(1-(3-(cyclopropylmethoxy)phenyl)ethyl)-5-(2,4-dioxo-3,4-dihydropyrimidin-1(2H)-yl)pent-3-ene-1-sulfonamide], half-maximal inhibition (IC50) required 0.05 µM.
The result for `O=c1ccn(CCCS(=O)(=O)NC(c2ccccc2)c2ccccc2)c(=O)[nH]1` [Example 111, N-benzhydryl-3-(2,4-dioxo-3,4-dihydropyrimidin-1(2H)-yl)propane-1-sulfonamide] reads 8.27 µM.
In the case of `O=c1ccn(CCCS(=O)(=O)NC(c2ccccc2)c2cccc(OCC3CC3)c2)c(=O)[nH]1` (centres unmarked) [Example 112, N-((3-(cyclopropylmethoxy)phenyl)(phenyl)methyl)-3-(2,4-dioxo-3,4-dihydropyrimidin-1(2H)-yl)propane-1-sulfonamide] it was 2.23 µM; in that of `O=c1ccn(C/C=C/CCS(=O)(=O)NCc2cccc(OCC3CC3)c2)c(=O)[nH]1` [Example 113, (E)-N-(3-(cyclopropylmethoxy)benzyl)-5-(2,4-dioxo-3,4-dihydropyrimidin-1(2H)-yl)pent-3-ene-1-sulfonamide], 0.41 µM.
In the case of `O=c1ccn(CCCS(=O)(=O)N[C@H](c2ccc(F)cc2)c2cccc(OCC3CC3)c2)c(=O)[nH]1` [Example 114, (R)—N-((3-(cyclopropylmethoxy)phenyl)(4-fluorophenyl)methyl)-3-(2,4-dioxo-3,4-dihydropyrimidin-1(2H)-yl)propane-1-sulfonamide] it was 0.58 µM; in that of `CC[C@@H](NS(=O)(=O)CCCn1ccc(=O)[nH]c1=O)c1ccc(F)c(OCC2CC2)c1` [Example 115, (R)—N-(1-(3-(cyclopropylmethoxy)-4-fluorophenyl)propyl)-3-(2,4-dioxo-3,4-dihydropyrimidin-1(2H)-yl)propane-1-sulfonamide], 0.25 µM.
For `O=c1ccn(CCCS(=O)(=O)N[C@H](c2ccc(F)cc2)c2ccc(F)c(OCC3CC3)c2)c(=O)[nH]1` [Example 116, (R)—N-((3-(cyclopropylmethoxy)-4-fluorophenyl)(4-fluorophenyl)methyl)-3-(2,4-dioxo-3,4-dihydropyrimidin-1(2H)-yl)propane-1-sulfonamide], the IC50 was determined as 0.35 µM. This IC50 and that of the molecule before are within 1.5-fold of each other.
In the case of `CC[C@@H](NS(=O)(=O)CCCn1ccc(=O)[nH]c1=O)c1ccccc1` [Example 118, (R)-3-(2,4-dioxo-3,4-dihydropyrimidin-1(2H)-yl)-N-(1-phenylpropyl)propane-1-sulfonamide], half-maximal inhibition (IC50) was put at 9.8 µM. Against the preceding molecule, the IC50 is about 28-fold higher.
The result for `O=c1ccn(CC2CCN(S(=O)(=O)NCc3cccc(OCC4CC4)c3)CC2)c(=O)[nH]1` [Example 128, N-(3-(cyclopropylmethoxy)benzyl)-4-((2,4-dioxo-3,4-dihydropyrimidin-1(2H)-yl)methyl)piperidine-1-sulfonamide] reads 0.27 µM; that for `O=c1ccn(CCCS(=O)(=O)N2CCC[C@@H]2C(O)(c2ccccc2)c2ccccc2)c(=O)[nH]1` [Example 130, (R)-1-(3-(2-(hydroxydiphenylmethyl)pyrrolidin-1-ylsulfonyl)propyl)pyrimidine-2,4(1H, 3H)-dione], 0.48 µM.
In the case of `O=c1ccn(CCCS(=O)(=O)N2CCC[C@@H]2C(O)(c2ccc(F)cc2)c2ccc(F)cc2)c(=O)[nH]1` [Example 131, (R)-1-(3-(2-(bis(4-fluorophenyl)(hydroxy)methyl)pyrrolidin-1-ylsulfonyl)propyl)pyrimidine-2,4(1H, 3H)-dione] it was 0.4 µM; in that of `O=c1ccn(CCCS(=O)(=O)N2CCC[C@@H]2C(O)(c2cccc(F)c2)c2cccc(F)c2)c(=O)[nH]1` [Example 132, (R)-1-(3-(2-(bis(3-fluorophenyl)(hydroxy)methyl)pyrrolidin-1-ylsulfonyl)propyl)pyrimidine-2,4(1H, 3H)-dione], 0.38 µM.
`CN(CC1(c2ccccc2)CC1)S(=O)(=O)CCCn1ccc(=O)[nH]c1=O` [Example 133, 3-(2,4-dioxo-3,4-dihydropyrimidin-1(2H)-yl)-N-methyl-N-((1-phenylcyclopropyl)methyl)propane-1-sulfonamide] had a 50% inhibitory concentration (IC50) of 6.56 µM.
In the case of `CN(CCc1cccc(OCC2CC2)c1)S(=O)(=O)CCCn1ccc(=O)[nH]c1=O` [Example 134, N-(3-(cyclopropylmethoxy)phenethyl)-3-(2,4-dioxo-3,4-dihydropyrimidin-1(2H)-yl)-N-methylpropane-1-sulfonamide] it was 4.54 µM.
The result for `COc1cccc(S(=O)(=O)NC(C)(C)CCCOCn2ccc(=O)[nH]c2=O)c1` [Example 135, N-(5-((2,4-dioxo-3,4-dihydropyrimidin-1(2H)-yl)methoxy)-2-methylpentan-2-yl)-3-methoxybenzenesulfonamide] reads 1.12 µM; that for `CC(C)(CCCOCn1ccc(=O)[nH]c1=O)NS(=O)(=O)c1ccc(Cl)cc1` [Example 136, 4-chloro-N-(5-((2,4-dioxo-3,4-dihydropyrimidin-1(2H)-yl)methoxy)-2-methylpentan-2-yl)benzenesulfonamide], 3.94 µM; that for `CC(C)(CCCOCn1ccc(=O)[nH]c1=O)NS(=O)(=O)c1ccc(Cl)c(Cl)c1` [Example 137, 3,4-dichloro-N-(5-((2,4-dioxo-3,4-dihydropyrimidin-1(2H)-yl)methoxy)-2-methylpentan-2-yl)benzenesulfonamide], 2.05 µM.
In the case of `CC(C)(CCCOCn1ccc(=O)[nH]c1=O)NS(=O)(=O)c1cc(Cl)c(Cl)s1` [Example 138, 4,5-dichloro-N-(5-((2,4-dioxo-3,4-dihydropyrimidin-1(2H)-yl)methoxy)-2-methylpentan-2-yl)thiophene-2-sulfonamide] it was 3.89 µM; in that of `CC(C)(CCCOCn1ccc(=O)[nH]c1=O)NS(=O)(=O)c1cc(Cl)cc(Cl)c1` [Example 139, 3,5-dichloro-N-(5-((2,4-dioxo-3,4-dihydropyrimidin-1(2H)-yl)methoxy)-2-methylpentan-2-yl)benzenesulfonamide], 4.99 µM.
